Laboratory results published in patent US8012952B2, “Cationic 17 α-substituted-estradiol derivatives useful as anti-cancer agent” (Council of Scientific & Industrial Research, priority 2007, dated 2011).

How the values were obtained:
MCF-7 cells = experiment: MTT cell viability assay, MCF-7 cells; settings: Homo sapiens, MCF7, read-out: in-vitro percent cell viability
Procedure: (§1) The in vitro cytotoxicities of the derivative A to various cancer and non-cancer cells across different molar concentrations (0.5 μM-50 μM) were performed. The cancer cells were chosen from various origins, such as breast cancer cells MCF-7 (primary carcinoma), T47D (ductal carcinoma), MDA-MB-468 (secondary, metastatic); cervical cancer cell Hela; lung cancer cell A549 (metastatic). […] In one set of experiments, the cells were treated at different concentrations of derivative A for 4 h, washed and kept in serum media for 6 days to observe cellular toxicity using MTT assay (FIGS. 1, 2, 4, 6A and 6B), except for one cell line where the assay was done after 4 days (FIG. 3). In another set of experiment, the cells were treated continuously for 48 h in presence of serum media and cellular toxicities were assayed promptly (FIG. 5).
(§2) Cells and Cell Culture. CHO (Chinese hamster ovary), COS-1 (African Green monkey kidney cells) HeLa (Human cervical carcinoma), MCF-7 (Human breast primary adenocarcinoma), T47D (Human breast ductal carcinoma), MDA-MB-468 (Human breast secondary adenocarcinoma), and A-549 (Human lung carcinoma) cell lines were procured from the National Centre for Cell Sciences (NCCS), Pune, India and were mycoplasma free. […] The cells were trypsinized, counted, subcultured in 96-well plates for viability studies. […]

Hela cells = experiment: MTT cell viability assay, Hela cells; settings: Homo sapiens, read-out: in-vitro percent cell viability
Procedure: as §1, §2

MDA-MB-468 cells = experiment: MTT cell viability assay, MDA-MB-468 cells; settings: Homo sapiens, MDA-MB-468, read-out: in-vitro percent cell viability
Procedure: as §1, §2

T47D cells = experiment: MTT cell viability assay, T47D cells; settings: Homo sapiens, read-out: in-vitro percent cell viability
Procedure: as §1, §2

Measured: viability at 50 µM

CCCCCCCC[N+](C)(CCCCCCCC)CCC[C@]1(O)CCC2C3CCc4cc(O)ccc4C3CC[C@@]21C (stereo partly drawn) [Derivative 1, 17α-[3-N,N-dioctyl(methyl)aminopropane]-17β-Estradiol]
2 to 10%: all assays above
